Reference: PubChem BioAssay (NCI)
Values joined by “and” are separate entries in the source; they are usually repeats but may differ in a detail not shown here. Equal entries are not always repeated.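 Interpolation was linear, between the two tested concentrations surrounding the appropriate level; five concentrations were tested over 48 hours in 96-well plates. GI50 = concentration required for 50% inhibition of growth. TGI: total growth inhibition.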 *1 amine or outer side, *2 acyl side, *3 side chain or, on linkers, in order; H or OH if unused. Where a SMILES comes first, the peptide text is derived from it. [ ]: non-standard residue; d: D form. X56 = CC[C@H](C)[C@H](OC(=O)[C@@H](C)[C@@H](CC)N[*:1])C(=O)[*:2]; X32 = C[C@H](N[*:1])C(=O)C(C)(C)C(=O)[*:2]; NMeY = CN[C@@H](Cc1ccc(O)cc1)C(=O)O; NMeL = CN[C@@H](CC(C)C)C(=O)O; NMeV = CN[C@H](C(=O)O)C(C)C

Legend:
Test in all cases: NCI tumour cell line growth inhibition, 48 h
786-0 renal = tested on: 786-0 renal
A498 renal = tested on: A498 renal
A549 NSCLC = tested on: A549 NSCLC
ACHN renal = tested on: ACHN renal
BT-549 breast = tested on: BT-549 breast
CAKI-1 renal = tested on: CAKI-1 renal
CCRF-CEM leukemia = tested on: CCRF-CEM leukemia
COLO 205 colon = tested on: COLO 205 colon
DLD-1 colon = tested on: DLD-1 colon
DMS 114 small cell lung = tested on: DMS 114 small cell lung
DMS 273 small cell lung = tested on: DMS 273 small cell lung
DU-145 prostate = tested on: DU-145 prostate
EKVX NSCLC = tested on: EKVX NSCLC
HCC-2998 colon = tested on: HCC-2998 colon
HCT-116 colon = tested on: HCT-116 colon
HCT-15 colon = tested on: HCT-15 colon
HOP-18 NSCLC = tested on: HOP-18 NSCLC
HOP-62 NSCLC = tested on: HOP-62 NSCLC
HOP-92 NSCLC = tested on: HOP-92 NSCLC
HT29 colon = tested on: HT29 colon
IGROV1 ovarian = tested on: IGROV1 ovarian
K-562 leukemia = tested on: K-562 leukemia
KM12 colon = tested on: KM12 colon
KM20L2 colon = tested on: KM20L2 colon
LOX IMVI melanoma = tested on: LOX IMVI melanoma
LXFL 529 NSCLC = tested on: LXFL 529 NSCLC
M14 melanoma = tested on: M14 melanoma
M19-MEL melanoma = tested on: M19-MEL melanoma
MALME-3M melanoma = tested on: MALME-3M melanoma
MCF7 breast = tested on: MCF7 breast
MDA-MB-231 breast = tested on: MDA-MB-231 breast
MDA-MB-435 = tested on: MDA-MB-435
MOLT-4 leukemia = tested on: MOLT-4 leukemia
NCI-H226 lung = tested on: NCI-H226 lung
NCI-H23 lung = tested on: NCI-H23 lung
NCI/ADR-RES ovarian = tested on: NCI/ADR-RES ovarian
OVCAR-3 ovarian = tested on: OVCAR-3 ovarian
OVCAR-5 ovarian = tested on: OVCAR-5 ovarian
OVCAR-8 ovarian = tested on: OVCAR-8 ovarian
PC-3 prostate = tested on: PC-3 prostate
RPMI-8226 leukemia = tested on: RPMI-8226 leukemia
RXF 393 renal = tested on: RXF 393 renal
SF-268 CNS = tested on: SF-268 CNS
SF-295 CNS = tested on: SF-295 CNS
SF-539 CNS = tested on: SF-539 CNS
SK-MEL-2 melanoma = tested on: SK-MEL-2 melanoma
SK-MEL-28 melanoma = tested on: SK-MEL-28 melanoma
SK-MEL-5 melanoma = tested on: SK-MEL-5 melanoma
SK-OV-3 ovarian = tested on: SK-OV-3 ovarian
SN12C renal = tested on: SN12C renal
SNB-19 CNS = tested on: SNB-19 CNS
SNB-75 CNS = tested on: SNB-75 CNS
SR leukemia = tested on: SR leukemia
SW-620 colon = tested on: SW-620 colon
TK-10 renal = tested on: TK-10 renal
U251 CNS = tested on: U251 CNS
UACC-257 melanoma = tested on: UACC-257 melanoma
UACC-62 melanoma = tested on: UACC-62 melanoma
UO-31 renal = tested on: UO-31 renal
XF 498 CNS = tested on: XF 498 CNS

`CC[C@H](C)[C@@H]1OC(=O)[C@@H](C)[C@@H](CC)NC(=O)[C@H](C)NC(=O)C(C)(C)C(=O)[C@H](C)NC(=O)[C@H](Cc2ccc(OC)cc2)N(C)C(=O)[C@H](C(C)C)N(C)C(=O)CNC(=O)[C@H](CC(C)C)N(C)C(=O)CNC1=O` (cyclo(A[X56]G[NMeL]G[NMeV][NMeY](Me)[X32])) was tested, and the GI50 (786-0 renal) was 67.5 nM, the TGI (786-0 renal) was 480 nM and 233 nM and the GI50 (A498 renal) was 39.8 nM. The TGI (A498 renal) was 1380 nM and 197 nM, the TGI (A549 NSCLC) was 3190 nM and 6150 nM and the GI50 (ACHN renal) was under 16.5 nM. For the same compound, the TGI (ACHN renal) was 332 nM and 90.8 nM, the TGI (BT-549 breast) was 280 nM and the GI50 (CAKI-1 renal) was 25.9 nM. The TGI (CAKI-1 renal) was 122 nM and 88.8 nM, the GI50 (CCRF-CEM leukemia) was under 15.2 nM and the GI50 (COLO 205 colon) was 34 nM. For the same compound, the TGI (COLO 205 colon) was over 33300 nM, the TGI (DLD-1 colon) was 2120 nM and the TGI (DMS 114 small cell lung) was 1130 nM. The TGI (DMS 273 small cell lung) was 72 nM, the TGI (DU-145 prostate) was 7040 nM and the GI50 (EKVX NSCLC) was 66.8 nM. The TGI (EKVX NSCLC) was 1820 nM and 8440 nM, the TGI (HCC-2998 colon) was 3940 nM and the TGI (HCT-116 colon) was 11300 nM. It also gave a GI50 (HCT-15 colon) of 222 nM, a TGI (HCT-15 colon) of over 34200 nM and a TGI (HOP-18 NSCLC) of 42.5 nM. The TGI (HOP-62 NSCLC) was 175 nM, the GI50 (HOP-92 NSCLC) was 15.6 nM and the TGI (HOP-92 NSCLC) was 238 nM and 31.6 nM. For the same compound, the TGI (HT29 colon) was 13200 nM, the GI50 (IGROV1 ovarian) was 19.3 nM and the TGI (IGROV1 ovarian) was 306 nM and 102 nM. For the same compound, the GI50 (K-562 leukemia) was under 32.2 nM, the TGI (K-562 leukemia) was 634 nM and the GI50 (KM12 colon) was 679 nM. The TGI (KM12 colon) was 91200 nM, the TGI (KM20L2 colon) was 16700 nM and the GI50 (LOX IMVI melanoma) was 39.2 nM. For the same compound, the TGI (LXFL 529 NSCLC) was 82.3 nM, the GI50 (M14 melanoma) was 40.3 nM and the TGI (M14 melanoma) was 2020 nM and 786 nM. For the same compound, the TGI (M19-MEL melanoma) was 22300 nM, the GI50 (MALME-3M melanoma) was 30.4 nM and the TGI (MCF7 breast) was 1260 nM. It also gave a TGI (MDA-MB-231 breast) of 792 nM, a TGI (MDA-MB-435) of 2470 nM and a GI50 (MOLT-4 leukemia) of 80.7 nM. The TGI (MOLT-4 leukemia) was 784 nM, the GI50 (NCI-H226 lung) was 73.1 nM and the TGI (NCI-H226 lung) was 3750 nM and 1060 nM. The GI50 (NCI-H23 lung) was 367 nM, the TGI (NCI-H23 lung) was 3660 nM and the TGI (NCI/ADR-RES ovarian) was 9920 nM. The GI50 (OVCAR-3 ovarian) was 30.4 nM, the TGI (OVCAR-3 ovarian) was 197 nM and 307 nM and the GI50 (OVCAR-5 ovarian) was 349 nM. The TGI (OVCAR-5 ovarian) was over 100000 nM, the GI50 (OVCAR-8 ovarian) was 33.5 nM and the TGI (OVCAR-8 ovarian) was 1450 nM. It also gave a TGI (PC-3 prostate) of 6850 nM, a GI50 (RPMI-8226 leukemia) of 26.3 nM and a TGI (RPMI-8226 leukemia) of 3380 nM. The GI50 (RXF 393 renal) was 27.4 nM, the TGI (RXF 393 renal) was 48.3 nM and 104 nM and the GI50 (SF-268 CNS) was under 16.1 nM. The GI50 (SF-295 CNS) was 10.2 nM, the TGI (SF-295 CNS) was 657 nM and 79.3 nM and the GI50 (SF-539 CNS) was 23.9 nM. For the same compound, the TGI (SF-539 CNS) was 50.8 nM and 126 nM, the TGI (SK-MEL-2 melanoma) was 438 nM and 2680 nM and the GI50 (SK-MEL-28 melanoma) was 72.7 nM and < 16.4 nM. The TGI (SK-MEL-28 melanoma) was 165 nM, the GI50 (SK-MEL-5 melanoma) was 135 nM and the TGI (SK-MEL-5 melanoma) was 173 nM and 462 nM. The GI50 (SK-OV-3 ovarian) was 24 nM, the GI50 (SN12C renal) was 43.3 nM and the TGI (SN12C renal) was 9790 nM and 3680 nM. For the same compound, the GI50 (SNB-19 CNS) was 211 nM, the TGI (SNB-19 CNS) was 492 nM and 688 nM and the GI50 (SNB-75 CNS) was under 15.4 nM. For the same compound, the GI50 (SR leukemia) was 63 nM, the TGI (SR leukemia) was 1060 nM and 600 nM and the GI50 (SW-620 colon) was under 31.6 nM. For the same compound, the TGI (SW-620 colon) was over 39100 nM, the GI50 (TK-10 renal) was 19.6 nM and the TGI (TK-10 renal) was 299 nM and 73.5 nM. The TGI (U251 CNS) was 1080 nM and 150 nM, the GI50 (UACC-257 melanoma) was 24.8 nM and the GI50 (UACC-62 melanoma) was 111 nM. The TGI (UACC-62 melanoma) was 5280 nM and 5310 nM, the TGI (UO-31 renal) was 383 nM and 428 nM and the TGI (XF 498 CNS) was 173 nM.
